Measured values from article PMC8550792, “Evolution of kinase polypharmacology across HSP90 drug discovery” (Cell Chemical Biology, 2021).

Legend:
Test in all cases: biochemical
Type in all cases: biochemical
[1] = target: T1, 382 unique human kinases (Homo sapiens, UniProt O96013); settings: PAK4, compound at 10 uM, duplicate values; for remaining activity at 10 µM: read-out: % Enzyme Activity (relative to DMSO controls)
T1 construct: purchased Reaction Biology (HotSpot contract assay)

[2] = target: T2, 382 unique human kinases (Homo sapiens, UniProt P10721); settings: c-Kit, 10 uM; for remaining activity at 10 µM: read-out: % Enzyme Activity (relative to DMSO controls)
T2 construct: purchased Reaction Biology (HotSpot contract assay)

[3] = target: T3, 382 unique human kinases (Homo sapiens, UniProt P30530, R499C); settings: AXL (R499C), 10 uM; for remaining activity at 10 µM: read-out: % Enzyme Activity (relative to DMSO controls)
T3 construct: purchased Reaction Biology (HotSpot contract assay)
T3 sequence (P30530 26-894 R499C): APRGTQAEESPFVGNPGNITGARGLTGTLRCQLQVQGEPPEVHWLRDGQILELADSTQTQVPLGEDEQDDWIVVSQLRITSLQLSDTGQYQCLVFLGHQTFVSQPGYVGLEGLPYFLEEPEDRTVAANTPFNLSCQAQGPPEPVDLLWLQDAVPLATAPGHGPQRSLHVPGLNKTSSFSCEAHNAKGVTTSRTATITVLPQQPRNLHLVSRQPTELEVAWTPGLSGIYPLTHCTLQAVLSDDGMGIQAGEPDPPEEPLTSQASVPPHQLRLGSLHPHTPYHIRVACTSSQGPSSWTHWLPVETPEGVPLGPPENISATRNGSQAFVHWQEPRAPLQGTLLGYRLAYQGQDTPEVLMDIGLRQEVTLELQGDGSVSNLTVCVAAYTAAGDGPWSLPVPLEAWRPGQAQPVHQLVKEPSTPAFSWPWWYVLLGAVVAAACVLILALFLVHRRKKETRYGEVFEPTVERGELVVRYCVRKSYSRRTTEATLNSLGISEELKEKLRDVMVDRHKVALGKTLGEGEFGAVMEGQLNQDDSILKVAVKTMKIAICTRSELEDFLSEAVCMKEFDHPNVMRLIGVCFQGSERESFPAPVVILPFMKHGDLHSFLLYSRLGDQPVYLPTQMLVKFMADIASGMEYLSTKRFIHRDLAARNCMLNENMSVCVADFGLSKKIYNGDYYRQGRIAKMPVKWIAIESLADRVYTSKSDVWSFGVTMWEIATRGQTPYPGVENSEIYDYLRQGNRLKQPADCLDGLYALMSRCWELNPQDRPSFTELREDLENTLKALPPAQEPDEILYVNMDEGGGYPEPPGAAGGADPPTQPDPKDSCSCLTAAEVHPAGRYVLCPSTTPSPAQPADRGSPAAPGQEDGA

[4] = target: T4, 382 unique human kinases (Homo sapiens, UniProt Q12852); settings: kinase DLK/MAP3K12, compound 10 uM; for remaining activity at 10 µM: read-out: % Enzyme Activity (relative to DMSO controls)
T4 sequence (Q12852 1-859): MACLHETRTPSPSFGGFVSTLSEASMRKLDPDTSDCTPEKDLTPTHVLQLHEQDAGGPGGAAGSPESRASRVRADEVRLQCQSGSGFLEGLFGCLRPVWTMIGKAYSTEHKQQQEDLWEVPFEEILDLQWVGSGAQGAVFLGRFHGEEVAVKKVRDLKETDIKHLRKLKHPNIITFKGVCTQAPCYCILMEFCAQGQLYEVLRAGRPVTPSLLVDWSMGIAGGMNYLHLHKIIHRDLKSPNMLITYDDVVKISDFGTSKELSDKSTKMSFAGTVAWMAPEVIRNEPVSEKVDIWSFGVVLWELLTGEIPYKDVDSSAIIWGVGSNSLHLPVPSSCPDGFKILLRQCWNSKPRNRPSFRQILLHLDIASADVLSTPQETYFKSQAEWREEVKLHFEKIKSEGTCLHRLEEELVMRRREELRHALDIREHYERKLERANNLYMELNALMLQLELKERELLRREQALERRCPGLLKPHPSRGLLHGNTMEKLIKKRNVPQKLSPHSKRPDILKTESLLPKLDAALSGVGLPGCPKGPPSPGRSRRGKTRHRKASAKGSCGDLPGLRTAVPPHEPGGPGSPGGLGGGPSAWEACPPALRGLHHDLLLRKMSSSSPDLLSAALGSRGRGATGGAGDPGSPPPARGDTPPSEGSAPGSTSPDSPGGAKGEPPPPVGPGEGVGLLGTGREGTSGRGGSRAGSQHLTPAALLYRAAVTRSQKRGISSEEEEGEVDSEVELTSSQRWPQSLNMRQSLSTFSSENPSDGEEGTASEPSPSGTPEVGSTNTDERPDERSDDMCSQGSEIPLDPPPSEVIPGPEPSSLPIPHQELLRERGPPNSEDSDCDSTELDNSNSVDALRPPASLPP

[5] = target: T5, 382 unique human kinases (Homo sapiens, UniProt Q8NEV4); settings: MYO3A, 10 uM; for remaining activity at 10 µM: read-out: % Enzyme Activity (relative to DMSO controls)
T5 construct: purchased Reaction Biology (HotSpot contract assay)

[6] = target: T6, 382 unique human kinases (Homo sapiens, UniProt P28482); settings: ERK2/MAPK1, 10 uM; for remaining activity at 10 µM: read-out: % Enzyme Activity (relative to DMSO controls)
T6 construct: purchased Reaction Biology (HotSpot contract assay)

[7] = target: T7, 382 unique human kinases (Homo sapiens, UniProt P41743); settings: PKCiota, 10 uM; for remaining activity at 10 µM: read-out: % Enzyme Activity (relative to DMSO controls)
T7 construct: purchased Reaction Biology (HotSpot contract assay)
T7 sequence (P41743 1-596): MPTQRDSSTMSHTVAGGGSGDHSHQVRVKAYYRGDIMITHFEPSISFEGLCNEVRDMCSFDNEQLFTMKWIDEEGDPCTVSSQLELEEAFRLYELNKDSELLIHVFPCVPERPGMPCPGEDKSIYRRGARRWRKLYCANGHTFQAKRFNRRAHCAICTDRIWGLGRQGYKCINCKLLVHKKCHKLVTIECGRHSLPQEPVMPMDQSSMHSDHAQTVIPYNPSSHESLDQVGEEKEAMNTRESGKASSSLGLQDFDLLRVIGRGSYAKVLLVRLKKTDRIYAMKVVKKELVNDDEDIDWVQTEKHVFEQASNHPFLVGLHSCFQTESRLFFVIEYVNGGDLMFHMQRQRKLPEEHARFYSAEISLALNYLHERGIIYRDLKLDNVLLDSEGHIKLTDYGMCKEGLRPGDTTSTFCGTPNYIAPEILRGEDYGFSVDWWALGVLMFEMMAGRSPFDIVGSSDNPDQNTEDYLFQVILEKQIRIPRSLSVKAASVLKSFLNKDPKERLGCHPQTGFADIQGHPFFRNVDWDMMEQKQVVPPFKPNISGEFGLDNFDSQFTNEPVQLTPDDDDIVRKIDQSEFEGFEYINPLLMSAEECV

[8] = target: T8, 382 unique human kinases (Homo sapiens, UniProt P54764); settings: EPHA4, [ATP] 30 µM, compound 10 uM; for remaining activity at 10 µM: read-out: % Enzyme Activity (relative to DMSO controls)
T8 construct: purchased Reaction Biology (HotSpot contract assay)
T8 sequence (P54764 20-986): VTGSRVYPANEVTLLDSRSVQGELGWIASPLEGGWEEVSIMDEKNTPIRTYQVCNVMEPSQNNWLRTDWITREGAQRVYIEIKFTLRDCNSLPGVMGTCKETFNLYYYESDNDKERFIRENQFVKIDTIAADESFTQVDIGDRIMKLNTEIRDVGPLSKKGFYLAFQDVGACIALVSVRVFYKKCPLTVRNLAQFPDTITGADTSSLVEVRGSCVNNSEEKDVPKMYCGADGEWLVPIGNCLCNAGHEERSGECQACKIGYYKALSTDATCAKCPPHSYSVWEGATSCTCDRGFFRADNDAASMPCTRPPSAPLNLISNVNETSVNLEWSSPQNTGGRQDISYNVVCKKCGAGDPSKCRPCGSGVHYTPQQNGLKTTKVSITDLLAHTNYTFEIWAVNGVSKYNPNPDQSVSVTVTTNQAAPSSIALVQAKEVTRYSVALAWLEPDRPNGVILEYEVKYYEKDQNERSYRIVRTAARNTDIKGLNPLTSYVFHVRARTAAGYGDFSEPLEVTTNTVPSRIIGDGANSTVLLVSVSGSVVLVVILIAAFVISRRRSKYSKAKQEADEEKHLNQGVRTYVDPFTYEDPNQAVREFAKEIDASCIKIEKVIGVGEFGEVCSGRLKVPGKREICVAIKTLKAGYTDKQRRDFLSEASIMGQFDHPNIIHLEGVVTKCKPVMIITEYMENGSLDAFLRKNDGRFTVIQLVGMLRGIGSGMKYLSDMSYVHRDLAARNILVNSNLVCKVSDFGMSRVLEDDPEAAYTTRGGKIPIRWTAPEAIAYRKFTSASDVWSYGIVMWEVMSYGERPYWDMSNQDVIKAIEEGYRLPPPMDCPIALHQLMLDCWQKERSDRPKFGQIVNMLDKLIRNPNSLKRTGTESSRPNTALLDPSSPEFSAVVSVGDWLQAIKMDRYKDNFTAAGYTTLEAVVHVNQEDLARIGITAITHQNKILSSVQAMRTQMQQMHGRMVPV

T2 sequence (P10721 26-976): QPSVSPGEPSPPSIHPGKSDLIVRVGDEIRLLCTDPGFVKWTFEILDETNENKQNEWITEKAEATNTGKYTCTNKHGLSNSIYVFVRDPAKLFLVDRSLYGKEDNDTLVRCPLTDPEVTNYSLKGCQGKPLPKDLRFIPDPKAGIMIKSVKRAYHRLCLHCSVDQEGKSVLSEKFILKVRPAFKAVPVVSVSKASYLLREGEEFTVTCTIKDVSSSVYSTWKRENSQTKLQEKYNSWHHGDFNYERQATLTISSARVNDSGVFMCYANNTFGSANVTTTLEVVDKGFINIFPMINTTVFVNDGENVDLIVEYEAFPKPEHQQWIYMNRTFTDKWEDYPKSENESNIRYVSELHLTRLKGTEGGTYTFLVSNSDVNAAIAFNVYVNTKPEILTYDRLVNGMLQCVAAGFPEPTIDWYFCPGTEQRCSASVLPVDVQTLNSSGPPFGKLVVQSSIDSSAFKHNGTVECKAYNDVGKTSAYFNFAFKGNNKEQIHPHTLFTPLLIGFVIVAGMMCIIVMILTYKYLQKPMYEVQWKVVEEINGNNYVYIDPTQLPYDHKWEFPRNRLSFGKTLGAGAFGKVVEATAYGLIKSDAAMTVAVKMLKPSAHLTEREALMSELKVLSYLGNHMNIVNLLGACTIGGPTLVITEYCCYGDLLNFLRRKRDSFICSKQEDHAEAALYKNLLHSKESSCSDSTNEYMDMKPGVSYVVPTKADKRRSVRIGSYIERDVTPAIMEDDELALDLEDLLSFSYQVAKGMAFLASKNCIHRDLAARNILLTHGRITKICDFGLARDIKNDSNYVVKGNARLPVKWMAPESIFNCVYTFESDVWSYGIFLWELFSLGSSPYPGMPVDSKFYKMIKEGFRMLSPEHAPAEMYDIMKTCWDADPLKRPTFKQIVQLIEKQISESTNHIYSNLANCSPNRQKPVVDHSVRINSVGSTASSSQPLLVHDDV
T5 sequence (Q8NEV4 whole entry): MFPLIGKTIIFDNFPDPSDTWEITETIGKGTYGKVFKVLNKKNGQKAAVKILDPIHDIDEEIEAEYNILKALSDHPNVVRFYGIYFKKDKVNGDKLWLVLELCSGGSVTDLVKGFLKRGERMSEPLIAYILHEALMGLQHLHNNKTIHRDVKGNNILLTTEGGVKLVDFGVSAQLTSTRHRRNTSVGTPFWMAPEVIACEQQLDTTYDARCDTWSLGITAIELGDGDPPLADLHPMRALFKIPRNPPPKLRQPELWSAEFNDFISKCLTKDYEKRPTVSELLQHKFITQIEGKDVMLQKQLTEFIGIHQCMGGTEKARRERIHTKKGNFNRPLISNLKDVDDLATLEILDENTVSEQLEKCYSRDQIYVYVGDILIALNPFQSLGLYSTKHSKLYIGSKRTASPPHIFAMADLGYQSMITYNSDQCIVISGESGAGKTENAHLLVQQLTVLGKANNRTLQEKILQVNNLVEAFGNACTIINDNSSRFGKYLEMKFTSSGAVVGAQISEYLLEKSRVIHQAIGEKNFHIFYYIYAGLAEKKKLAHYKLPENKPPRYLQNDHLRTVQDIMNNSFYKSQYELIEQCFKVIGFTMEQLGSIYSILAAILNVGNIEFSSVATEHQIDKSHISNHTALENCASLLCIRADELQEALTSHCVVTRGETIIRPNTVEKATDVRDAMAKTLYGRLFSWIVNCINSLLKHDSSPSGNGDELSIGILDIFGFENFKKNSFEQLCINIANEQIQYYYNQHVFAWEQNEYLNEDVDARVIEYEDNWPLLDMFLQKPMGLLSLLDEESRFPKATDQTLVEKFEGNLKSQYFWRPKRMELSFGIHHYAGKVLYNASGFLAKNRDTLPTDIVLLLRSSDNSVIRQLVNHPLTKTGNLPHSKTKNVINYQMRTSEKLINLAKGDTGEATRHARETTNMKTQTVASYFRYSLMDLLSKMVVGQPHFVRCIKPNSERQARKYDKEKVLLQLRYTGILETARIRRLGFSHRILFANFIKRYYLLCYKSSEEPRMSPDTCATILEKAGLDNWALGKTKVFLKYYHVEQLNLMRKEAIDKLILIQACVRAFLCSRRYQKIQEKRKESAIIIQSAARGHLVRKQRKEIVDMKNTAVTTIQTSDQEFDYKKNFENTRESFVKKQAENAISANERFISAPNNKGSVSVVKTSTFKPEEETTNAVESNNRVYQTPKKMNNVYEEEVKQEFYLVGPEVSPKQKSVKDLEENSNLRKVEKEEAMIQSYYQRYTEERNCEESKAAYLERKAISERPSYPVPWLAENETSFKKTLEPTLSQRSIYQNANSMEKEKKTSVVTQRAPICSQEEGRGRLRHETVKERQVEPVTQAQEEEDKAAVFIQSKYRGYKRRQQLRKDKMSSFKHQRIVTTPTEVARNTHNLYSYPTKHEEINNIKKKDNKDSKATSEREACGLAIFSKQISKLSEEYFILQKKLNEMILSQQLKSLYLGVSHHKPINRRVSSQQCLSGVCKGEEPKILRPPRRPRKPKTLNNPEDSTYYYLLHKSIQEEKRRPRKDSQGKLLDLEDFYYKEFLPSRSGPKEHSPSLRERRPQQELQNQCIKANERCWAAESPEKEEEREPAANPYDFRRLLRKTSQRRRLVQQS
T1 sequence (O96013 whole entry): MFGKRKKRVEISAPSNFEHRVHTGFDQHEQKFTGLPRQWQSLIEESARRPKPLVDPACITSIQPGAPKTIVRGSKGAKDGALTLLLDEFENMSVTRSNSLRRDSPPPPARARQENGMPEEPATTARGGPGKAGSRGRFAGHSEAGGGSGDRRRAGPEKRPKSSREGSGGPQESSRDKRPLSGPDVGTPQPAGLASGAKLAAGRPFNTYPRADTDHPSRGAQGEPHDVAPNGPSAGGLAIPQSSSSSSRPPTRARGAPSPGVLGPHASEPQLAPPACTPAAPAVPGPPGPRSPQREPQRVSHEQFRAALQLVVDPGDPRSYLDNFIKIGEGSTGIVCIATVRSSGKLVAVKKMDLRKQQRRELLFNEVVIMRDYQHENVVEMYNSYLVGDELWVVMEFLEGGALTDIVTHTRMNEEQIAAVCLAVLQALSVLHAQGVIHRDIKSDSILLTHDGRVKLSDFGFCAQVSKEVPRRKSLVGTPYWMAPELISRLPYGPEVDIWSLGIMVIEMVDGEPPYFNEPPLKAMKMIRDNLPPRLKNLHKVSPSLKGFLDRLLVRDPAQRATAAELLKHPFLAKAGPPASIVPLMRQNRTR
T6 sequence (P28482 whole entry): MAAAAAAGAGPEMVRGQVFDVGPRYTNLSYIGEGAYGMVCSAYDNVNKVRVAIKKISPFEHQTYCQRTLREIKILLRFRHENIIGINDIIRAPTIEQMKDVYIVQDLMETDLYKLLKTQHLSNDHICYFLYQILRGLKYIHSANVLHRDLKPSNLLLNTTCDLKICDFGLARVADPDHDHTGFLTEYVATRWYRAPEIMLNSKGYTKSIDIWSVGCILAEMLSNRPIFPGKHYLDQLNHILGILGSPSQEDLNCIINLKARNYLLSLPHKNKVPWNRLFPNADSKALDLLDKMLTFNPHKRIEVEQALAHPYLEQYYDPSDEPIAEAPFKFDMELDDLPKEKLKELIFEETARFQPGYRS

Row | Compound | remaining activity at 10 µM [1] [%] | remaining activity at 10 µM [2] [%] | remaining activity at 10 µM [3] [%] | remaining activity at 10 µM [4] [%] | remaining activity at 10 µM [5] [%] | remaining activity at 10 µM [6] [%] | remaining activity at 10 µM [7] [%] | remaining activity at 10 µM [8] [%] | % Enzyme Activity (relative to DMSO controls) [1] [%] | % Enzyme Activity (relative to DMSO controls) [2] [%] | % Enzyme Activity (relative to DMSO controls) [3] [%] | % Enzyme Activity (relative to DMSO controls) [4] [%] | % Enzyme Activity (relative to DMSO controls) [5] [%] | % Enzyme Activity (relative to DMSO controls) [6] [%] | % Enzyme Activity (relative to DMSO controls) [7] [%] | % Enzyme Activity (relative to DMSO controls) [8] [%]
1 | CC(C)c1cc(-c2n[nH]c(=O)n2-c2ccc3c(ccn3C)c2)c(O)cc1O [Ganetespib (STA9090)] | 129 | 80.8 | 66.4 | 84.7 | 97.3 | – | – | – | – | – | – | – | – | – | – | –
2 | CC(C)c1cc(-c2n[nH]c(=O)n2-c2ccc3c(ccn3C)c2)c(O)cc1O [Ganetespib] | – | – | – | – | – | 106 | 94.9 | 49 | – | – | – | – | – | – | – | –
3 | CCNC(=O)c1noc(-c2cc(C(C)C)c(O)cc2O)c1-c1ccc(CN2CCOCC2)cc1 [Luminespib (AUY-922)] | 119 | 72.9 | 98.8 | 122 | 76.4 | – | – | – | 118.57 | 72.90 | 96.57 | 120.31 | 74.72 | – | – | –
4 | CCNC(=O)c1noc(-c2cc(C(C)C)c(O)cc2O)c1-c1ccc(CN2CCOCC2)cc1 [Luminespib] | – | – | – | – | – | 94.6 | 96 | 91.1 | – | – | – | – | – | 93.52 | 94.98 | 90.78
